Experimental data: patent US9499476B2, “Acetamide stereoisomer” (SUNOVION PHARMACEUTICALS INC., priority 2007, dated 2016)
Marks after values point to notes of the source that are not given here.

How the values were obtained:
adrenergic β2 receptors = biological target: T1, adrenergic β2 receptors (Cavia porcellus, UniProt Q8K4Z4); assay: β2 adrenergic functional activity, relaxation of spontaneous tone of isolated trachea; parameters: species or system Dunkin Hartley Guinea pigs
T1 construct: from tissue; host or cells: isolated trachea, Dunkin Hartley guinea pig
T1 sequence (Q8K4Z4 whole entry): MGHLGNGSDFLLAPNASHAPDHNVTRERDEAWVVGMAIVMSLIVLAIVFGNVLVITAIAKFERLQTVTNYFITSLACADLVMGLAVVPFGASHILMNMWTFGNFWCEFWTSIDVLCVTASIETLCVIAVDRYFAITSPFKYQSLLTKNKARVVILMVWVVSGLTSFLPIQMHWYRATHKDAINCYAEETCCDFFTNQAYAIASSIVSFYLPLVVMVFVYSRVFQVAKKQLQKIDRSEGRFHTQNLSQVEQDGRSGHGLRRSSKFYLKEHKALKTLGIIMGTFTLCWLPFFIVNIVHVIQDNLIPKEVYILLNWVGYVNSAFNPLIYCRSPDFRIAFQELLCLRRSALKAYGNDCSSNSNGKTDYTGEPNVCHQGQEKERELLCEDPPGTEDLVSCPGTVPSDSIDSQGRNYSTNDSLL

[1] = biological target: T2, human recombinant β2 receptors (Homo sapiens, UniProt P07550); assay: β2 radioligand binding assay
T2 sequence (P07550 whole entry): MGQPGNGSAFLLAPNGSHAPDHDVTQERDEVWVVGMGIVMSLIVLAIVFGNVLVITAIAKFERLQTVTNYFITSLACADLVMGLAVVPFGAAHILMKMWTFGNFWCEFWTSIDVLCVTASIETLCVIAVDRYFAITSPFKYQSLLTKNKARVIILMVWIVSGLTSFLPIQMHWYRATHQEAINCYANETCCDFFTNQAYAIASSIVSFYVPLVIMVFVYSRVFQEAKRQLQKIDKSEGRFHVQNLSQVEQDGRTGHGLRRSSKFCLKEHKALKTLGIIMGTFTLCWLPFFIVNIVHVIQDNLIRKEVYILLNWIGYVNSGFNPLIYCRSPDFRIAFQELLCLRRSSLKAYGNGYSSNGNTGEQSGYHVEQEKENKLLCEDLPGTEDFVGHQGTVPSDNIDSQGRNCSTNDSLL

[2] = biological target: T2, human recombinant β2 receptors; assay: Intrinsic activity assessment (β2), cAMP production in CHO cells; assay type: cell-based; conditions: relative to procaterol, read-out: intrinsic activity (% response relative to procaterol-induced cAMP increase)
[3] = biological target: T3, human recombinant β1 receptors (Homo sapiens, UniProt P08588); assay: β1 radioligand binding assay
T3 construct: expressed in transfected cells; host or cells: CHO cells
T3 sequence (P08588 whole entry): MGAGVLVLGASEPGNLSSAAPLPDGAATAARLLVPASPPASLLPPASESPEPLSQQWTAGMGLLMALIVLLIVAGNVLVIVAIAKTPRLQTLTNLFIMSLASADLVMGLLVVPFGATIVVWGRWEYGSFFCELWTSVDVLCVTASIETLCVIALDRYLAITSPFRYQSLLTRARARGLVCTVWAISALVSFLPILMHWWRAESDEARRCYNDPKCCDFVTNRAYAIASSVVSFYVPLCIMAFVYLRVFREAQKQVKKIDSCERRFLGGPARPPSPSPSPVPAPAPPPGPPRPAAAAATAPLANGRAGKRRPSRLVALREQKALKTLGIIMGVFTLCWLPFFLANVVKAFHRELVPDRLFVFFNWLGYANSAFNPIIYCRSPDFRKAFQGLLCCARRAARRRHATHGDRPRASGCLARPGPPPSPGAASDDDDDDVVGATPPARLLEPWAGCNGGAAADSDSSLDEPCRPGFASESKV

adrenergic β1 receptors = adrenergic β1 receptors (Cavia porcellus, UniProt H0W3H1); assay: β1 adrenergic functional activity, positive chronotropic effect in isolated right atria; parameters: species or system Dunkin Hartley Guinea pigs; conditions: read-out: increase in heart rate, β1 functional assay
adrenergic β1 receptors, sequence (H0W3H1 1-470): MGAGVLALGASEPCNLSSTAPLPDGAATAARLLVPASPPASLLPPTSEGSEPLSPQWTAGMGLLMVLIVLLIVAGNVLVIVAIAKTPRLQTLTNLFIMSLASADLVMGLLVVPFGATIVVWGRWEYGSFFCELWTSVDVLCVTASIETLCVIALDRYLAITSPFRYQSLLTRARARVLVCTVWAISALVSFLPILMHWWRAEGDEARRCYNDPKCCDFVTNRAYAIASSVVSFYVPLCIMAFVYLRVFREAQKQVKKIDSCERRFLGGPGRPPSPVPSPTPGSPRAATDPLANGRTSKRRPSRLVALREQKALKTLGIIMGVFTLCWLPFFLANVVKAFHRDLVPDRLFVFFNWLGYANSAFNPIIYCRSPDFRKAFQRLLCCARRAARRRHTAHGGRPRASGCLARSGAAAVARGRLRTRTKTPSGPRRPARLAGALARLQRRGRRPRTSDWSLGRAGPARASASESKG
Description: β1 and β2 Adrenergic Activity (Functional)
The concentration that gives 50% maximal effect is the EC50.

[4] = Stability in aqueous buffered solutions (HPLC assay); assay type: physicochemical
Experimental: Stability in Aqueous Buffered Solutions
Solution Preparations: For each test compound, the following solutions are prepared.
• Solution A is prepared from ˜30 mg of the test compound in 150 mL of 0.005 M citrate buffer, pH 5.0 (˜0.2 mg/mL). • Solution B is prepared as follows: approximately 30 mL aliquot of Solution A is transferred to a separated container and the pH of the solution is adjusted to pH 3.0 with 1 N HCl (˜0.2 mL). • Solution C is prepared as follows: approximately 30 mL aliquot of Solution A is transferred to a separated container and the pH of the solution is adjusted to pH ˜8.0 with 1 N NaOH (˜0.2 mL). • Note: Because the volume of 1 N HCl or 1 N NaOH used for adjusting pH was negligible, the concentration of test compound in Solutions A, B and C were the same.
Storage Scheme • As soon as the above solutions were prepared, aliquots of each solution were transferred into 11 vials, of which 9 vials are stored at −20° C., and one each is stored at 30° C. and 40° C., respectively. • At each interval listed below, two vials are removed from −20° C. storage, and stored at 30° C. and 40° C., respectively. • The corresponding weeks under the storage condition (30° C. or 40° C.) are shown in the table below.
On Week 12, the last vial stored at −20° C. is removed and warmed up to the room temperature, which is the Day 0 Solution.
Sample Analysis: On Week 12, all solutions are assayed by an HPLC method using the Day 0 Solution at pH 5 as a standard solution. The test compounds were assayed by HPLC with UV detection (refer to Table 1 for method conditions).

**Q.** For `CC(=O)Nc1cc([C@H](O)CN[C@H](C)Cc2ccc(O)cc2)ccc1O` [Example 1, N-[2-hydroxy-5-[(1S)-1-hydroxy-2-[[(1R)-2-(4-hydroxyphenyl)-1-methylethyl]amino]ethyl]phenyl]acetamide], which melting point is on record?
**A.** Its melting point is 97 to 100 °C.

**Q.** And the EC50 (adrenergic β2 receptors; isolated guinea pig trachea)?
**A.** Its EC50 is 0.12 µM.

**Q.** And the β1/β2 functional ratio (adrenergic β2 receptors; ratio of β1 to β2 functional EC50)?
**A.** The β1/β2 functional ratio was greater than 250.

**Q.** And the Ki ([1]; displacement of [3H]-CGP-12177, CHO cells, read-out: Ki for the β2 receptor)?
**A.** The Ki was 2.21 µM.

**Q.** And the β1/β2 binding ratio ([1]; ratio of β1 to β2 binding Ki)?
**A.** Its β1/β2 binding ratio is greater than 9.

**Q.** What about the Emax [2] of the same molecule?
**A.** The Emax was 71%.

**Q.** What about the inhibition at 20 µM ([3]; at a concentration of 20 μM, read-out: inhibition of specific binding, β1 receptor) of the same molecule?
**A.** The inhibition at 20 µM was 30%.

**Q.** What about the Ki ([3]; displacement of [125I]-cyanopidolol, CHO cells, read-out: Ki for the β1 receptor) of the same molecule?
**A.** Its Ki is greater than 20 µM.

**Q.** What about the activation at 30 µM (adrenergic β1 receptors) of the same molecule?
**A.** Its activation at 30 µM is 32%.

**Q.** And the “% of Initial Concentration” value ([4]; pH 3.0, 30° C., 0 wk)?
**A.** The value was 99.46%.

**Q.** And the “% of Initial Concentration” value ([4]; pH 3.0, 30° C., 1 wk)?
**A.** The value was 100.03%.

**Q.** What about the “% of Initial Concentration” value ([4]; pH 3.0, 30° C., 2 wk) of the same molecule?
**A.** Its value is 99.84%.

**Q.** What about the “% of Initial Concentration” value ([4]; pH 3.0, 30° C., 4 wk) of the same molecule?
**A.** The value was 101.41%.

**Q.** And the “% of Initial Concentration” value ([4]; pH 3.0, 30° C., 8 wk)?
**A.** The value was 100.33%.

**Q.** What about the “% of Initial Concentration” value ([4]; pH 3.0, 30° C., 12 wk) of the same molecule?
**A.** Its value is 100.29%.

**Q.** And the “% of Initial Concentration” value ([4]; pH 3.0, 40° C., 0 wk)?
**A.** The value was 99.46%.

**Q.** What about the “% of Initial Concentration” value ([4]; pH 3.0, 40° C., 1 wk) of the same molecule?
**A.** The value was 99.89%.

**Q.** What about the “% of Initial Concentration” value ([4]; pH 3.0, 40° C., 2 wk) of the same molecule?
**A.** The value was 100.11%.

**Q.** And the “% of Initial Concentration” value ([4]; pH 3.0, 40° C., 4 wk)?
**A.** Its value is 99.54%.

**Q.** What about the “% of Initial Concentration” value ([4]; pH 3.0, 40° C., 8 wk) of the same molecule?
**A.** Its value is 99.18%.

**Q.** What about the “% of Initial Concentration” value ([4]; pH 3.0, 40° C., 12 wk) of the same molecule?
**A.** Its value is 97.17%.

**Q.** What about the “time found to be very stable in aqueous solution” value ([4]; pH 3 or 5, stored at 30° C.) of the same molecule?
**A.** Its value is “at least 12 weeks”.

**Q.** And the “% of Initial Concentration” value ([4]; pH 5.0, 30° C., 0 wk)?
**A.** Its value is 100.25%.

**Q.** What about the “% of Initial Concentration” value ([4]; pH 5.0, 30° C., 1 wk) of the same molecule?
**A.** Its value is 101.22%.

**Q.** And the “% of Initial Concentration” value ([4]; pH 5.0, 30° C., 2 wk)?
**A.** Its value is 101.07%.

**Q.** What about the “% of Initial Concentration” value ([4]; pH 5.0, 30° C., 4 wk, flagged out of trend) of the same molecule?
**A.** Its value is 112.52* %.

**Q.** And the “% of Initial Concentration” value ([4]; pH 5.0, 30° C., 8 wk)?
**A.** Its value is 107.12%.

**Q.** And the “% of Initial Concentration” value ([4]; pH 5.0, 30° C., 12 wk)?
**A.** The value was 107.75%.

**Q.** And the “% of Initial Concentration” value ([4]; pH 5.0, 40° C., 0 wk)?
**A.** Its value is 100.25%.

**Q.** And the “% of Initial Concentration” value ([4]; pH 5.0, 40° C., 1 wk)?
**A.** Its value is 102.00%.

**Q.** And the “% of Initial Concentration” value ([4]; pH 5.0, 40° C., 2 wk)?
**A.** Its value is 102.73%.

**Q.** And the “% of Initial Concentration” value ([4]; pH 5.0, 40° C., 4 wk)?
**A.** Its value is 102.94%.

**Q.** And the “% of Initial Concentration” value ([4]; pH 5.0, 40° C., 8 wk, flagged out of trend)?
**A.** The value was 122.32* %.

**Q.** And the “% of Initial Concentration” value ([4]; pH 5.0, 40° C., 12 wk, flagged out of trend)?
**A.** Its value is 112.61* %.

**Q.** And the “% of Initial Concentration” value ([4]; ~pH 8, 30° C., 0 wk)?
**A.** The value was 100.38%.

**Q.** What about the “% of Initial Concentration” value ([4]; ~pH 8, 30° C., 1 wk) of the same molecule?
**A.** The value was 99.64%.

**Q.** And the “% of Initial Concentration” value ([4]; ~pH 8, 30° C., 2 wk)?
**A.** Its value is 99.60%.

**Q.** What about the “% of Initial Concentration” value ([4]; ~pH 8, 30° C., 4 wk) of the same molecule?
**A.** Its value is 96.62%.

**Q.** And the “% of Initial Concentration” value ([4]; ~pH 8, 30° C., 8 wk, flagged out of trend)?
**A.** The value was 26.79* %.

**Q.** What about the “% of Initial Concentration” value ([4]; ~pH 8, 30° C., 12 wk) of the same molecule?
**A.** Its value is 89.93%.

**Q.** And the “% of Initial Concentration” value ([4]; ~pH 8, 40° C., 0 wk)?
**A.** Its value is 100.38%.

**Q.** What about the “% of Initial Concentration” value ([4]; ~pH 8, 40° C., 1 wk) of the same molecule?
**A.** The value was 97.44%.

**Q.** And the “% of Initial Concentration” value ([4]; ~pH 8, 40° C., 2 wk)?
**A.** The value was 93.75%.

**Q.** And the “% of Initial Concentration” value ([4]; ~pH 8, 40° C., 4 wk)?
**A.** The value was 86.72%.

**Q.** And the “% of Initial Concentration” value ([4]; ~pH 8, 40° C., 8 wk)?
**A.** Its value is 72.25%.

**Q.** And the “% of Initial Concentration” value ([4]; ~pH 8, 40° C., 12 wk)?
**A.** The value was 61.36%.
